Our source for the IC50 values is US11548900B2, “Oxazino-quinazoline and oxazino-quinoline type compound, preparation method and uses thereof” (BEIJING SCITECH-MQ PHARMACEUTICALS LIMITED, priority 2018, dated 2023).

For one assay, the system named is HCC827 cells. Kind of assay: Inhibition of cell proliferation, HCC827 (CCK-8, 72 h). The assay is classed as cell-based. To be noted: Homo sapiens, 72 h incubation. The method in brief:
(§1)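 BT474 and HCC827 seeded at 10,000 and 3000 cells/well respectively, cultured overnight, then exposed to 10-point 3-fold compound dilutions (top stock 10 mM; 0.25% DMSO final) for 72 h. Viability by CCK-8, OD450; survival normalised to untreated and cell-free blanks, IC50 from curve fit.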

A further assay addresses HER2 kinase (Homo sapiens (Human), UniProt P04626). Kind of assay: Inhibition of HER2 kinase activity (ULight-labeled PolyGT substrate). The assay is classed as biochemical. To be noted: HER2 kinase 10 nM, ATP 10 μM, 2 hours. The method, boiled down: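 Eleven-point 3-fold dilutions (0.042 nM–2.5 μM final, 1% DMSO) tested in duplicate against 10 nM HER2 with 100 nM ULight-labelled PolyGT and 10 μM ATP. Reaction ran 2 h at RT after 5 min pre-incubation; 665/615 nm TR-FRET ratio used to derive inhibition and IC50.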

A further assay has as its target EGFR kinase (Homo sapiens (Human), UniProt P00533). Nature of the assay: Inhibition of EGFR kinase activity (ULight-labeled JAK-1 (Tyr1023) peptide substrate). The assay is classed as biochemical. To be noted: EGFR kinase 0.35 nM, ATP 150 μM, 2 hours. The method in brief: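 TR-FRET kinase assay: 0.35 nM EGFR, 150 μM ATP, 100 nM substrate, 2 h at room temperature in the dark after 5 min enzyme-compound preincubation, 1% DMSO. Compounds tested as 11-point 3-fold series, 2.5 μM to 0.042 nM final, duplicate; IC50 from 665/615 nm ratio-based inhibition.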

The subject of a further assay is BT474 cells. Nature of the assay: Inhibition of cell proliferation, BT474 (CCK-8, 72 h). The assay is classed as cell-based. As to conditions: Homo sapiens, BT-474, 72 h incubation. The method, boiled down:
as §1

HER2 kinase, sequence (P04626 23-1255): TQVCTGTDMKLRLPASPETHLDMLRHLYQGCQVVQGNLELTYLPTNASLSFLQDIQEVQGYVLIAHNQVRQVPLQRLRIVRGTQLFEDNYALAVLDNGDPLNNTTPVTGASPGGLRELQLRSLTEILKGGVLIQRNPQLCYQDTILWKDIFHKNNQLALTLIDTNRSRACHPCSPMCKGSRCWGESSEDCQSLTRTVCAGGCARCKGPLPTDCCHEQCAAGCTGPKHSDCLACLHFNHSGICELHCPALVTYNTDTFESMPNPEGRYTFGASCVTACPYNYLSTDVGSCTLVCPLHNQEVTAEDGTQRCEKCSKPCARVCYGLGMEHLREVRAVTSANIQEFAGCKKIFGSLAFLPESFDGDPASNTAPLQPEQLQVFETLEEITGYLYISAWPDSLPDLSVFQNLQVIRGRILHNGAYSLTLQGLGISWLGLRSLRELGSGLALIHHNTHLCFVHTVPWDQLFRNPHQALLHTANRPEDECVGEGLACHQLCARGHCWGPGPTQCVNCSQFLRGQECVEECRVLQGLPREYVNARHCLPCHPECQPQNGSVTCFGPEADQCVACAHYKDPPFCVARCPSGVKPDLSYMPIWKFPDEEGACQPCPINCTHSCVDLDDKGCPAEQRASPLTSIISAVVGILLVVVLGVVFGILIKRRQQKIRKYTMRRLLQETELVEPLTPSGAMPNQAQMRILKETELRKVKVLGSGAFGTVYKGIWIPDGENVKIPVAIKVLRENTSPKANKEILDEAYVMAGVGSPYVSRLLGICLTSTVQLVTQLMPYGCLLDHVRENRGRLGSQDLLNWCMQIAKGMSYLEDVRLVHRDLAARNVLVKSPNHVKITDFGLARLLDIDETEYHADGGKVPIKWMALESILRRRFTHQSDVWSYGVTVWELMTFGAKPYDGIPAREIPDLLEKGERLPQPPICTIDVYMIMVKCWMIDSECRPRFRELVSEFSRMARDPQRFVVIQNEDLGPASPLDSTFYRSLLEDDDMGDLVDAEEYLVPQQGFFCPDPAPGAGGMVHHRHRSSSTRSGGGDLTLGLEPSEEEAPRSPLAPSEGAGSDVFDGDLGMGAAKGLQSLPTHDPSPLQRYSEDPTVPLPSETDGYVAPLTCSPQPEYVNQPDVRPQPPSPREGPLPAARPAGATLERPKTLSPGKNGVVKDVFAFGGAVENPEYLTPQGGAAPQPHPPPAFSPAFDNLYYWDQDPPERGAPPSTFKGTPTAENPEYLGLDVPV
EGFR kinase, sequence (P00533 25-1210): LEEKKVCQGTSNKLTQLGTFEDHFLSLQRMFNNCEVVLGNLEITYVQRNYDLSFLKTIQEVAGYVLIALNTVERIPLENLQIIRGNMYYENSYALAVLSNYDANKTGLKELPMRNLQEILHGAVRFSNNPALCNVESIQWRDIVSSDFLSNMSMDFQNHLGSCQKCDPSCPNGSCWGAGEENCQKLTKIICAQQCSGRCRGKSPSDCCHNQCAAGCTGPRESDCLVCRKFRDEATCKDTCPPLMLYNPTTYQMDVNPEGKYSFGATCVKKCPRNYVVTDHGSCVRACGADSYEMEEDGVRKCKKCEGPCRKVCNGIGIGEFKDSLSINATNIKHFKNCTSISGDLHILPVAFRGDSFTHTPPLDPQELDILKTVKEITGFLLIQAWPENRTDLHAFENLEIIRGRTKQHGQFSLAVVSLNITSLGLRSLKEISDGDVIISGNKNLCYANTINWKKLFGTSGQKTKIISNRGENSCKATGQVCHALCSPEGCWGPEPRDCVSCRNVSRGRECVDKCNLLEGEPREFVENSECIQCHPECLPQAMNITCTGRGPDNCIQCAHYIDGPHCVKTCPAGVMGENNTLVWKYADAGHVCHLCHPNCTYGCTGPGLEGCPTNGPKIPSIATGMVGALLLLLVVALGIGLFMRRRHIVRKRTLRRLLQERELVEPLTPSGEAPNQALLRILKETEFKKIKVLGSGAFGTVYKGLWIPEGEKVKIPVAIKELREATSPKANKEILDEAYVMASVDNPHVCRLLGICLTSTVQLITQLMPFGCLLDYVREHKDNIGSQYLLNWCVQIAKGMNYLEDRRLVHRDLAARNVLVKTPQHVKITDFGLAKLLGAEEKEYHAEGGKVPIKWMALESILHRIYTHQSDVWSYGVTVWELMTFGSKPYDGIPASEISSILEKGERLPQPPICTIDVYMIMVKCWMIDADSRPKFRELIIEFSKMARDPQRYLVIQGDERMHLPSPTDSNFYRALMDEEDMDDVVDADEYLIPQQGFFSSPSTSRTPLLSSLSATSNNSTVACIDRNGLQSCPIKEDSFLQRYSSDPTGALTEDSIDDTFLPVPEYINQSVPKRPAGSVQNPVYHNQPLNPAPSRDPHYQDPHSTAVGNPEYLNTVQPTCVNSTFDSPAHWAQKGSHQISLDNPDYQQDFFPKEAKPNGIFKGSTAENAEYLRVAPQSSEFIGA

Take `CN(C)C/C=C/C(=O)N1CCOc2c1ccc1ncnc(Nc3ccc(SCc4ccccc4)cc3)c21` [Example 66, (E)-4-(dimethylamino)-1-(10-((4-(benzylthio)phenyl)amino)-2,3-dihydro-4H-[1,4]oxazino[2,3-f]quinazolin-4-yl)but-2-en-1-one]: the IC50 was 500 to 5000 nM with HCC827 cells, no more than 50 nM at HER2 kinase, no more than 50 nM against EGFR kinase and no more than 50 nM with BT474 cells.
`COc1cc(Nc2ncnc3ccc4c(c23)OCCN4C(=O)/C=C/CN(C)C)ccc1OCc1cccc(F)c1` [Example 68, (E)-4-(dimethylamino)-1-(10-((4-((3-fluorobenzyl)oxy)-3-methoxyphenyl)amino)-2,3-dihydro-4H-[1,4]oxazino[2,3-f]quinazolin-4-yl)but-2-en-1-one]: the IC50 in the assay on HCC827 cells was 500 to 5000 nM; against HER2 kinase it was no more than 50 nM; against EGFR kinase, no more than 50 nM; with BT474 cells it was no more than 50 nM.
As to `CN(C)C/C=C/C(=O)N1CCOc2c1ccc1ncnc(Nc3ccc(OCc4cccc(F)c4)c(F)c3)c21` [Example 69, (E)-4-(dimethylamino)-1-(10-((4-((3-fluorobenzyl)oxy)-3-fluorophenyl)amino)-2,3-dihydro-4H-[1,4]oxazino[2,3-f]quinazolin-4-yl)but-2-en-1-one], the IC50 is 500 to 5000 nM in the assay on HCC827 cells, no more than 50 nM against HER2 kinase, no more than 50 nM against EGFR kinase and no more than 50 nM in the assay on BT474 cells.
`Cc1ccc(F)c(Oc2ccc(Nc3ncnc4ccc5c(c34)OCCN5C(=O)/C=C/CN(C)C)cc2)c1` [Example 71, (E)-4-(dimethylamino)-1-(10-((4-(2-fluoro-5-methylphenoxy)phenyl)amino)-2,3-dihydro-4H-[1,4]oxazino[2,3-f]quinazolin-4-yl)but-2-en-1-one]: the IC50 was 500 to 5000 nM with HCC827 cells, no more than 50 nM at HER2 kinase, no more than 50 nM at EGFR kinase and no more than 50 nM with BT474 cells.
`CN(C)C/C=C/C(=O)N1CCOc2c1ccc1ncnc(Nc3ccc(Oc4cc(Cl)ccc4F)cc3)c21` [Example 72, (E)-4-(dimethylamino)-1-(10-((4-(5-chloro-2-fluorophenoxy)phenyl)amino)-2,3-dihydro-4H-[1,4]oxazino[2,3-f]quinazolin-4-yl)but-2-en-1-one]: the IC50 in the assay with HCC827 cells is 50 to 500 nM; on HER2 kinase, no more than 50 nM; against EGFR kinase, no more than 50 nM; in the assay on BT474 cells it was no more than 50 nM.
As to `CN(C)C/C=C/C(=O)N1CCOc2c1ccc1ncnc(Nc3ccc(Oc4cc(F)ccc4F)cc3)c21` [Example 73, (E)-4-(dimethylamino)-1-(10-((4-(2,5-difluorophenoxy)phenyl)amino)-2,3-dihydro-4H-[1,4]oxazino[2,3-f]quinazolin-4-yl)but-2-en-1-one], the IC50 with HCC827 cells is 500 to 5000 nM; on HER2 kinase, no more than 50 nM; against EGFR kinase, 50 to 500 nM; in the assay with BT474 cells it was no more than 50 nM.
As to `CC(Oc1ccc(Nc2ncnc3ccc4c(c23)OCCN4C(=O)/C=C/CN(C)C)cc1)c1cccc(F)c1` (stereo not shown) [Example 74, (E)-4-(dimethylamino)-1-(10-((4-(1-(3-fluorophenyl)ethoxy)phenyl)amino)-2,3-dihydro-4H-[1,4]oxazino[2,3-f]quinazolin-4-yl)but-2-en-1-one], the IC50 in the assay with HCC827 cells is 500 to 5000 nM; against HER2 kinase, no more than 50 nM; against EGFR kinase, 50 to 500 nM; in the assay with BT474 cells, no more than 50 nM.
Turning to `CN(C)C/C=C/C(=O)N1CCOc2c1ccc1ncnc(Nc3ccc(OCc4cccnc4)cc3)c21` [Example 76, (E)-4-(dimethylamino)-1-(10-((4-(pyridin-3-ylmethoxy)phenyl)amino)-2,3-dihydro-4H-[1,4]oxazino[2,3-f]quinazolin-4-yl)but-2-en-1-one], the IC50 is 50 to 500 nM in the assay on HCC827 cells, no more than 50 nM at HER2 kinase, 500 to 5000 nM against EGFR kinase and no more than 50 nM in the assay on BT474 cells.
For the molecule `CN(C)C/C=C/C(=O)N1CCOc2c1ccc1ncnc(Nc3ccc(OCc4cccc(Cl)c4)cc3)c21` [Example 83, (E)-1-(10-((4-((3-chlorobenzyl)oxy)phenyl)amino)-2,3-dihydro-4H-[1,4]oxazino[2,3-f]quinazolin-4-yl)-4-(dimethylamino)but-2-en-1-one], the IC50 in the assay with HCC827 cells was 500 to 5000 nM; on HER2 kinase, no more than 50 nM; on EGFR kinase, no more than 50 nM; with BT474 cells, no more than 50 nM.
In the case of `O=C(/C=C/CN1CCCC1)N1CCOc2c1ccc1ncnc(Nc3ccc(Oc4ccccc4)cc3)c21` [Example 91, (E)-1-(10-((4-phenoxyphenyl)amino)-2,3-dihydro-4H-[1,4]oxazino[2,3-f]quinazolin-4-yl)-4-(pyrrolidin-1-yl)but-2-en-1-one], the IC50 is 500 to 5000 nM with HCC827 cells, no more than 50 nM against HER2 kinase, no more than 50 nM against EGFR kinase and no more than 50 nM with BT474 cells.
In the case of `CCN(CC)C/C=C/C(=O)N1CCOc2c1ccc1ncnc(Nc3ccc(Oc4ccccc4)cc3)c21` [Example 92, (E)-4-(diethylamino)-1-(10-((4-phenoxyphenyl)amino)-2,3-dihydro-4H-[1,4]oxazino[2,3-f]quinazolin-4-yl)but-2-en-1-one], the IC50 in the assay on HCC827 cells is 500 to 5000 nM; at HER2 kinase it was no more than 50 nM; against EGFR kinase it was no more than 50 nM; in the assay on BT474 cells, no more than 50 nM.
As for `O=C(/C=C/CN1CCCCC1)N1CCOc2c1ccc1ncnc(Nc3ccc(Oc4ccccc4)cc3)c21` [Example 93, (E)-1-(10-((4-phenoxyphenyl)amino)-2,3-dihydro-4H-[1,4]oxazino[2,3-f]quinazolin-4-yl)-4-(piperidin-1-yl)but-2-en-1-one], the IC50 with HCC827 cells is 50 to 500 nM; at HER2 kinase, no more than 50 nM; against EGFR kinase it was no more than 50 nM; in the assay with BT474 cells, no more than 50 nM.
On to `O=C(/C=C/CN1CCOCC1)N1CCOc2c1ccc1ncnc(Nc3ccc(Oc4ccccc4)cc3)c21` [Example 94, (E)-4-morpholino-1-(10-((4-phenoxyphenyl)amino)-2,3-dihydro-4H-[1,4]oxazino[2,3-f]quinazolin-4-yl)but-2-en-1-one], for which the IC50 in the assay with HCC827 cells was 500 to 5000 nM; on HER2 kinase, no more than 50 nM; against EGFR kinase, no more than 50 nM; in the assay on BT474 cells, no more than 50 nM.
With `CN1CCN(C/C=C/C(=O)N2CCOc3c2ccc2ncnc(Nc4ccc(Oc5ccccc5)cc4)c32)CC1` [Example 95, (E)-4-(4-methylpiperazin-1-yl)-1-(10-((4-phenoxyphenyl)amino)-2,3-dihydro-4H-[1,4]oxazino[2,3-f]quinazolin-4-yl)but-2-en-1-one], the IC50 with HCC827 cells was 50 to 500 nM; at HER2 kinase it was no more than 50 nM; against EGFR kinase it was no more than 50 nM; in the assay on BT474 cells, no more than 50 nM.
Consider `O=C(/C=C/CN1CCOCC1)N1CCOc2c1ccc1ncnc(Nc3ccc(OCc4cccc(F)c4)c(Cl)c3)c21` [Example 96, (E)-1-(10-((3-chloro-4-((3-fluorobenzyl)oxy)phenyl)amino)-2,3-dihydro-4H-[1,4]oxazino[2,3-f]quinazolin-4-yl)-4-morpholinobut-2-en-1-one], for which the concentration for half-maximal inhibition (IC50) is 50 to 500 nM in the assay on HCC827 cells, no more than 50 nM against HER2 kinase, no more than 50 nM at EGFR kinase and no more than 50 nM in the assay on BT474 cells.
In the case of `CN1CCN(C/C=C/C(=O)N2CCOc3c2ccc2ncnc(Nc4ccc(OCc5ccccn5)c(Cl)c4)c32)CC1` [Example 104, (E)-1-(10-((3-chloro-4-(pyridin-2-ylmethoxy)phenyl)amino)-2,3-dihydro-4H-[1,4]oxazino[2,3-f]quinazolin-4-yl)-4-(4-methylpiperazin-1-yl)but-2-en-1-one], the IC50 in the assay with HCC827 cells was 50 to 500 nM; against HER2 kinase, no more than 50 nM; against EGFR kinase, no more than 50 nM; in the assay with BT474 cells, no more than 50 nM.
As to `CCN(CC)C/C=C/C(=O)N1CCOc2c1ccc1ncnc(Nc3ccc(OCc4ccccn4)c(Cl)c3)c21` [Example 105, (E)-1-(10-((3-chloro-4-(pyridin-2-ylmethoxy)phenyl)amino)-2,3-dihydro-4H-[1,4]oxazino[2,3-f]quinazolin-4-yl)-4-(diethylamino)but-2-en-1-one], the IC50 was 50 to 500 nM in the assay with HCC827 cells, no more than 50 nM against HER2 kinase, no more than 50 nM on EGFR kinase and no more than 50 nM in the assay on BT474 cells.
For `O=C(/C=C/CN1CCCC1)N1CCOc2c1ccc1ncnc(Nc3ccc(OCc4ccccn4)c(Cl)c3)c21` [Example 106, (E)-1-(10-((3-chloro-4-(pyridin-2-ylmethoxy)phenyl)amino)-2,3-dihydro-4H-[1,4]oxazino[2,3-f]quinazolin-4-yl)-4-(pyrrolidin-1-yl)but-2-en-1-one], the IC50 in the assay with HCC827 cells was 50 to 500 nM; at HER2 kinase, no more than 50 nM; against EGFR kinase, no more than 50 nM; in the assay with BT474 cells it was no more than 50 nM.
Take `O=C(/C=C/CN1CCCCC1)N1CCOc2c1ccc1ncnc(Nc3ccc(OCc4ccccn4)c(Cl)c3)c21` [Example 107, (E)-1-(10-((3-chloro-4-(pyridin-2-ylmethoxy)phenyl)amino)-2,3-dihydro-4H-[1,4]oxazino[2,3-f]quinazolin-4-yl)-4-(piperidin-1-yl)but-2-en-1-one]: the IC50 is 500 to 5000 nM in the assay on HCC827 cells, no more than 50 nM on HER2 kinase, no more than 50 nM against EGFR kinase and no more than 50 nM in the assay on BT474 cells.

The term IC50 denotes the concentration at which inhibition is half-maximal. Read a low IC50 as greater potency in that assay.
